Measured values published in patent publication US20240246964A1 (Arbutus Biopharma Corporation, priority 2021, published 2024).

Biological target: human PD-L1 (Homo sapiens (Human), UniProt Q9NZQ7)
Experiment: T cell activation luciferase reporter cell culture system (T Cell Activation Assay)
Format: cell-based
Details: luciferase reporter assay; PD-L1 aAPC/CHO-K1 cells with PD-1 effector Jurkat T cells

Chain of human PD-L1 (Q9NZQ7 19-290): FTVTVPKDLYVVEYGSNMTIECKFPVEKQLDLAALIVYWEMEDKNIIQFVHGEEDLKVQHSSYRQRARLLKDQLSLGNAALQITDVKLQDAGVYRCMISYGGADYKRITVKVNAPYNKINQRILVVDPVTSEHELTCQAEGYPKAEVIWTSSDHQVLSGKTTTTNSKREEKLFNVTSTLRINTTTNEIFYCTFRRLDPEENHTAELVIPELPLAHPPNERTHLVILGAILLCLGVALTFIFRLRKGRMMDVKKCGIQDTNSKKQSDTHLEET

For `COc1nc(-c2ccnc(-c3cccc4c3CCC[C@@H]4Nc3nc(OC)c(CNC4(C(=O)O)CC4)cc3C(F)(F)F)c2Cl)ccc1CNC[C@@H]1CCC(=O)N1` [Example 704], the EC50 was ≥ 10 µM.

In the case of `COc1cc(-c2nccc(-c3cccc4c3CCC[C@@H]4Nc3nc(OC)c(CNC4(C(=O)O)CC4)cc3C(F)(F)F)c2Cl)ccc1CNC[C@@H]1CCC(=O)N1` [Example 705, 1-(((6-(((S)-5-(3-Chloro-2-(3-methoxy-4-(((((S)-5-oxopyrrolidin-2-yl)methyl)amino)methyl)phenyl)pyridin-4-yl)-1,2,3,4-tetrahydronaphthalen-1-yl)amino)-2-methoxy-5-(trifluoromethyl)pyridin-3-yl)methyl)amino)cyclopropane-1-carboxylic acid], the EC50 is reported as ≥ 10 µM.

With `COc1nc(-c2ccnc(-c3cccc4c3CCC[C@@H]4Nc3nc(OC)c(CNC[C@@H]4CCC(=O)N4)cc3C(F)(F)F)c2Cl)ccc1CNC[C@@H]1CCC(=O)N1` [Example 709, (S)-5-((((3′-Chloro-6-methoxy-2′-((S)-5-((6-methoxy-5-(((((S)-5-oxopyrrolidin-2-yl)methyl)amino)methyl)-3-(trifluoromethyl)pyridin-2-yl)amino)-5,6,7,8-tetrahydronaphthalen-1-yl)-[2,4′-bipyridin]-5-yl)methyl)amino)methyl)pyrrolidin-2-one] the EC50 was ≥ 10 µM.

`COc1cc(-c2nccc(-c3cccc4c3CCC[C@@H]4Nc3nc(OC)c(CNC[C@@H]4CCC(=O)N4)cc3C(F)(F)F)c2Cl)ccc1CNC[C@@H]1CCC(=O)N1` [Example 710, (S)-5-((((6-(((S)-5-(3-Chloro-2-(3-methoxy-4-(((((S)-5-oxopyrrolidin-2-yl)methyl)amino)methyl)phenyl)pyridin-4-yl)-1,2,3,4-tetrahydronaphthalen-1-yl)amino)-2-methoxy-5-(trifluoromethyl)pyridin-3-yl)methyl)amino)methyl)pyrrolidin-2-one] was tested, and the EC50 was ≥ 10 µM.

With `COc1cc(-c2ncnc(-c3cccc(-c4ccc(CNCCO)c(OC)n4)c3Cl)c2Cl)ccc1CN1CC2(CNC(=O)C2)C1` [Example 711, 2-(4-(5-Chloro-6-(2-chloro-3-(5-(((2-hydroxyethyl)amino)methyl)-6-methoxypyridin-2-yl)phenyl)pyrimidin-4-yl)-2-methoxybenzyl)-2,6-diazaspiro[3.4]octan-7-one] the EC50 was 0.195 µM.

`COc1nc(-c2cccc(-c3ccnc(-c4cc(OC)c5nc(CNCCCF)nn5c4)c3Cl)c2Cl)ccc1CNC1CCN(C(C)=O)CC1` [Example 713, 1-(4-(((6-(2-Chloro-3-(3-chloro-2-(2-(((3-fluoropropyl)amino)methyl)-8-methoxy-[1,2,4]triazolo[1,5-a]pyridin-6-yl)pyridin-4-yl)phenyl)-2-methoxypyridin-3-yl)methyl)amino)piperidin-1-yl)ethan-1-one] was tested, and the EC50 was 0.13 µM.

For `COc1nc(-c2cccc(-c3ccnc(-c4cc(OC)c5nc(CN(C)CCO)nn5c4)c3Cl)c2Cl)ccc1CNC1CCN(C(C)=O)CC1` [Example 715, 1-(4-(((6-(2-Chloro-3-(3-chloro-2-(2-(((2-hydroxyethyl)(methyl)amino)methyl)-8-methoxy-[1,2,4]triazolo[1,5-a]pyridin-6-yl)pyridin-4-yl)phenyl)-2-methoxypyridin-3-yl)methyl)amino)piperidin-1-yl)ethan-1-one], the EC50 was 0.581 µM.

With `COc1cc(-c2ncnc(-c3cccc(-c4ccc(CNC5CCN(C(C)=O)CC5)c(OC)n4)c3Cl)c2OC)ccc1CNC1CCN(C(C)=O)CC1` [Example 717, 1-(4-(((6-(3-(6-(4-(((1-Acetylpiperidin-4-yl)amino)methyl)-3-methoxyphenyl)-5-methoxypyrimidin-4-yl)-2-chlorophenyl)-2-methoxypyridin-3-yl)methyl)amino)piperidin-1-yl)ethan-1-one] the EC50 was ≥ 10 µM.

With `COc1cc(-c2ncnc(-c3cccc(-c4ccc(CN5CC6(CNC(=O)C6)C5)c(OC)n4)c3Cl)c2OC)ccc1CN1CC2(CNC(=O)C2)C1` [Example 727, 2-((6-(2-Chloro-3-(5-methoxy-6-(3-methoxy-4-((7-oxo-2,6-diazaspiro[3.4]octan-2-yl)methyl)phenyl)pyrimidin-4-yl)phenyl)-2-methoxypyridin-3-yl)methyl)-2,6-diazaspiro[3.4]octan-7-one] the EC50 was ≥ 10 µM.

In the case of `COc1cc(-c2ncnc(-c3cccc(-c4ccc(CNCCO)c(OC)n4)c3Cl)c2OC)ccc1CNCCO` [Example 728, 2-((4-(6-(2-Chloro-3-(5-(((2-hydroxyethyl)amino)methyl)-6-methoxypyridin-2-yl)phenyl)-5-methoxypyrimidin-4-yl)-2-methoxybenzyl)amino)ethan-1-ol], the EC50 is reported as ≥ 10 µM.

With `CNCc1ccc(-c2ccnc(-c3cccc4c3CCC[C@@H]4Nc3nc(OC)c(CNC)cc3C(F)(F)F)c2Cl)nc1OC` [Example 732, (S)—N-(5-(3′-Chloro-6-methoxy-5-((methylamino)methyl)-[2,4′-bipyridin]-2′-yl)-1,2,3,4-tetrahydronaphthalen-1-yl)-6-methoxy-5-((methylamino)methyl)-3-(trifluoromethyl)pyridin-2-amine] the EC50 was ≥ 10 µM.

`COc1cc(-c2nccc(-c3cccc(NC(=O)c4ccc(CNCCO)cn4)c3Cl)c2Cl)ccc1CNC1CCN(C(C)=O)CC1` [Example 733, N-(3-(2-(4-(((1-Acetylpiperidin-4-yl)amino)methyl)-3-methoxyphenyl)-3-chloropyridin-4-yl)-2-chlorophenyl)-5-(((2-hydroxyethyl)amino)methyl)picolinamide] was tested, and the EC50 was 0.0286 µM.

`COc1cc(-c2ncnc(-c3cccc(-c4ccc(CNC5CCOCC5)c(OC)n4)c3Cl)c2OC)ccc1CNC1CCOCC1` [Example 734, N-((6-(2-Chloro-3-(5-methoxy-6-(3-methoxy-4-(((tetrahydro-2H-pyran-4-yl)amino)methyl)phenyl)pyrimidin-4-yl)phenyl)-2-methoxypyridin-3-yl)methyl)tetrahydro-2H-pyran-4-amine] was tested, and the EC50 was ≥ 10 µM.

For `COc1cc(-c2nccc(-c3cccc4c3CCC[C@@H]4Nc3nc(OC)c(CNC[C@H](C)O)cc3C(F)(F)F)c2Cl)ccc1CNC[C@@H]1CCC(=O)N1` [Example 736, (S)-5-(((4-(3-Chloro-4-((S)-5-((5-((((S)-2-hydroxypropyl)amino)methyl)-6-methoxy-3-(trifluoromethyl)pyridin-2-yl)amino)-5,6,7,8-tetrahydronaphthalen-1-yl)pyridin-2-yl)-2-methoxybenzyl)amino)methyl)pyrrolidin-2-one], the EC50 was ≥ 10 µM.

For `COc1cc(-c2ncnc(-c3cccc(-c4ccc(CN[C@H]5C[C@@H](O)C5)c(OC)n4)c3Cl)c2Cl)ccc1CN1CC2(CNC(=O)C2)C1` [Example 737, 2-(4-(5-Chloro-6-(2-chloro-3-(5-((((1s,3s)-3-hydroxycyclobutyl)amino)methyl)-6-methoxypyridin-2-yl)phenyl)pyrimidin-4-yl)-2-methoxybenzyl)-2,6-diazaspiro[3.4]octan-7-one], the EC50 was 0.109 µM.

For `COc1nc(-c2nccc(-c3cccc(NC(=O)c4cn(C)c(=O)n(C)c4=O)c3Cl)c2Cl)ccc1CNC[C@@H]1CCC(=O)N1` [Example 738, (S)—N-(2-Chloro-3-(3-chloro-6′-methoxy-5′-((((5-oxopyrrolidin-2-yl)methyl)amino)methyl)-[2,2′-bipyridin]-4-yl)phenyl)-1,3-dimethyl-2,4-dioxo-1,2,3,4-tetrahydropyrimidine-5-carboxamide], the EC50 was 0.272 µM.

Compound `COc1nc(-c2nccc(-c3cccc(NC(=O)c4cn(C)c(=O)n(C)c4=O)c3Cl)c2Cl)ccc1CNC[C@H](C)O` [Example 739, (S)—N-(2-Chloro-3-(3-chloro-5′-(((2-hydroxypropyl)amino)methyl)-6′-methoxy-[2,2′-bipyridin]-4-yl)phenyl)-1,3-dimethyl-2,4-dioxo-1,2,3,4-tetrahydropyrimidine-5-carboxamide] has an EC50 of 1.85 µM.

Compound `COc1cc(-c2ncnc(-c3cccc(-c4ccc(CN[C@H]5C[C@H](O)C5)c(OC)n4)c3Cl)c2Cl)ccc1CN1CC2(CNC(=O)C2)C1` [Example 740] has an EC50 of 0.0804 µM.

In the case of `CNCc1ccc(-c2nccc(-c3cccc4c3CCC[C@@H]4Nc3nc(OC)c(CNC)cc3C(F)(F)F)c2Cl)cc1OC` [Example 741, (S)—N-(5-(3-Chloro-2-(3-methoxy-4-((methylamino)methyl)phenyl)pyridin-4-yl)-1,2,3,4-tetrahydronaphthalen-1-yl)-6-methoxy-5-((methylamino)methyl)-3-(trifluoromethyl)pyridin-2-amine], the EC50 is reported as ≥ 10 µM.

`COc1cc(-c2ncnc(-c3cccc(-c4ccc(CNC[C@@H]5CCC(=O)N5)c(OC)n4)c3Cl)c2Cl)ccc1CN1CC2(CNC(=O)C2)C1` [Example 742, (S)-2-(4-(5-Chloro-6-(2-chloro-3-(6-methoxy-5-((((5-oxopyrrolidin-2-yl)methyl)amino)methyl)pyridin-2-yl)phenyl)pyrimidin-4-yl)-2-methoxybenzyl)-2,6-diazaspiro[3.4]octan-7-one] showed an EC50 of 0.0286 µM.

In the case of `COc1cc(-c2ncnc(-c3cccc(-c4ccc(CN5CC6(CCC(=O)N6)C5)c(OC)n4)c3Cl)c2OC)ccc1CN1CC2(CCC(=O)N2)C1` [Example 743, 2-((6-(2-Chloro-3-(5-methoxy-6-(3-methoxy-4-((6-oxo-2,5-diazaspiro[3.4]octan-2-yl)methyl)phenyl)pyrimidin-4-yl)phenyl)-2-methoxypyridin-3-yl)methyl)-2,5-diazaspiro[3.4]octan-6-one], the EC50 is reported as ≥ 10 µM.

`COc1cc(-c2nccc(-c3cccc(NC(=O)c4ccc(CNCCO)cn4)c3C)c2Cl)ccc1CN1CC2(CNC(=O)C2)C1` [Example 744, N-(3-(3-Chloro-2-(3-methoxy-4-((7-oxo-2,6-diazaspiro[3.4]octan-2-yl)methyl)phenyl)pyridin-4-yl)-2-methylphenyl)-5-(((2-hydroxyethyl)amino)methyl)picolinamide] was tested, and the EC50 was 0.154 µM.

`COc1cc(-c2nccc(-c3cccc(NC(=O)c4ccc(CNC[C@@H]5CCC(=O)N5)cn4)c3C)c2Cl)ccc1CNC1CCN(C(C)=O)CC1` [Example 747, (S)—N-(3-(2-(4-(((1-acetylpiperidin-4-yl)amino)methyl)-3-methoxyphenyl)-3-chloropyridin-4-yl)-2-methylphenyl)-5-((((5-oxopyrrolidin-2-yl)methyl)amino)methyl)picolinamide] showed an EC50 of 0.825 µM.
